The values that follow come from ChEMBL document CHEMBL6092160, “Discovery of novel third generation P-glycoprotein inhibitors bearing an azo moiety with MDR-reversing effect” (Eur J Med Chem, 2024).

The subject of series [1] is K562/A02. In words: Reversal of multi-drug resistance in human K562/A02 cells assessed as decrease in adriamycin IC50 preincubated with compound followed by ADR addition for 48 hrs. In kind it is functional, cell-based.
Series [2] deals with K562/A02. Nature of the series: Antiproliferative activity against human K562/A02 cells assessed as reduction in cell viability incubated for 72 hrs by CCK-8 assay. It counts as functional, cell-based. As to conditions: K562/A02, 72 h; call rule not given here. Background: Formazan colour is commonly taken as a measure of viable cells.
Series [3] concerns K562/A02. Nature of the series: Cytotoxicity against human K562/A02 cells over expressing P-gp at 20 uM incubated for 72 hrs by CCK-8 assay. As to conditions: k562/a02, 72 h. In kind it is toxicity, cell-based.
Series [4] has as its target T1, ATP-dependent translocase ABCB1 (Homo sapiens, UniProt P08183). In words: Induction of thermal stabilization of P-glycoprotein in human K562/A02 cells at 50 uM under 25 to 61 degreeC incubated for 1 hrs by CETSA based Western blot analysis. It counts as cell-based. As to conditions: k562/a02, 1 h. On the technique in general: In western blotting, separated proteins are transferred to a membrane and probed.

Series [5] concerns K562/A02. Nature of the series: Effect on P-glycoprotein expression at mRNA level in human K562/A02 cells at 0.5 to 8.0 uM by q-PCR analysis. It counts as functional, cell-based. Particulars: dose 0.5-8 µM.
The test system of series [6] is K562/A02. In words: Effect on P-glycoprotein expression at protein level in human K562/A02 cells at 0.5 to 8.0 uM incubated for 24 hrs by Western blot analysis. It counts as functional, cell-based. As to conditions: dose 0.5-8 µM.
The target of series [7] is T1, ATP-dependent translocase ABCB1. Nature of the series: Inhibition of P-glycoprotein in human K562/A02 cells assessed as accumulation of rhodamine incubated for 4 hrs by flow cytometric analysis. It counts as cell-based. As to conditions: k562/a02, 4 h, at 0.5 to 8 µM, dose 0.5-8 µM. (In general: In flow cytometry, cells or beads pass a laser one at a time.)

Structures can show the parent of a compound that is named as a salt.

T1 sequence (P08183 whole entry): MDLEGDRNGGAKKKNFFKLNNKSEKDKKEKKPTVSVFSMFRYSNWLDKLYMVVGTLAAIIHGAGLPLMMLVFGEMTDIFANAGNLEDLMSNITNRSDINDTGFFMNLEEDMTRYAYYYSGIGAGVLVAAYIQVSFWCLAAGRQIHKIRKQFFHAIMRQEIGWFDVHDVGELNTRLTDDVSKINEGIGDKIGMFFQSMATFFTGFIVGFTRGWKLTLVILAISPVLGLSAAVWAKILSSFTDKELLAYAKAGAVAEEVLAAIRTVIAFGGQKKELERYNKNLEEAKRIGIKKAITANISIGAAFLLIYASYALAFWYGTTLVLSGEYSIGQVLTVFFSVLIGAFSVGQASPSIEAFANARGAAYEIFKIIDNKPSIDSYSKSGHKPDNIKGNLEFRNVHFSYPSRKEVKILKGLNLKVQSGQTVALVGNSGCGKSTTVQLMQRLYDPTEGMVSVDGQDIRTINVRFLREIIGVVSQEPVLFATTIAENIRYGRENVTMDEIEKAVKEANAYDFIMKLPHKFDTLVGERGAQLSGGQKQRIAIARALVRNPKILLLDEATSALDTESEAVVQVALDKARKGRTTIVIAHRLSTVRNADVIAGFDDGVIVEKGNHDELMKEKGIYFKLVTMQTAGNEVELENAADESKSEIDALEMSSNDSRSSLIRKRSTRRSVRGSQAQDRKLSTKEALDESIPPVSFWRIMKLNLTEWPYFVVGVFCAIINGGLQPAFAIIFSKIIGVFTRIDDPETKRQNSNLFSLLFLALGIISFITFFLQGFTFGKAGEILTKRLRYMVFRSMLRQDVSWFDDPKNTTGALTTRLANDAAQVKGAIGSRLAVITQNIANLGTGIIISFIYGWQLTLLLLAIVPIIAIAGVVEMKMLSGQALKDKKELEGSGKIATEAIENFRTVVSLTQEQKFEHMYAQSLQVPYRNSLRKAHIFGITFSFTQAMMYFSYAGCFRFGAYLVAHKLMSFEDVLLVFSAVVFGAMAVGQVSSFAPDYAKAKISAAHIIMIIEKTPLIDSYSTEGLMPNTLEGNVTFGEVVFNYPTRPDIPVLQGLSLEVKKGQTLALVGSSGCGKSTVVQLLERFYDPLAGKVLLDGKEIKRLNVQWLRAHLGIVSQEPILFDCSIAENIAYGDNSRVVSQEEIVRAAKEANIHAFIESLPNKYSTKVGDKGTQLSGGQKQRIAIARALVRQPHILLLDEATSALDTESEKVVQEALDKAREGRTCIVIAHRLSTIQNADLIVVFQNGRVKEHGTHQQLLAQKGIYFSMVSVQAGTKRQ

What is called EC50 is the midpoint of the concentration-response curve. On to `COc1ccc(C(=O)Nc2ccccc2C(=O)Nc2ccc(CCN3CCc4cc(OC)c(OC)cc4C3)cc2)cc1OC`, for which the EC50 with K562/A02 [1] is 29.4 nM.

What is called IC50 is the concentration needed to halve the response being measured. With `COc1cccc2c1C(=O)c1c(O)c3c(c(O)c1C2=O)C[C@@](O)(C(=O)CO)C[C@@H]3O[C@H]1C[C@H](N)[C@H](O)[C@H](C)O1` [DOXORUBICIN HYDROCHLORIDE], the IC50 in the series with K562/A02 [2] worked out at 2160 nM.

Turning to `COc1cc2c(cc1OC)CN(CCc1ccc(/N=N/c3ccccc3NC(=O)c3ccc(C)cc3)cc1)CC2`, the Activity entry in the series with K562/A02 [3] is reported as “Non-toxic”.

For the compound `COc1ccc(C(=O)Nc2ccccc2/N=N/c2ccc(CCN3CCc4cc(OC)c(OC)cc4C3)cc2)cc1`, the Activity result in the series with K562/A02 [3] is “Non-toxic”.

Regarding `COc1cc2c(cc1OC)CN(CCc1ccc(NC(=O)c3ccccc3/N=N/c3ccccc3)cc1)CC2`, the Activity result with K562/A02 [3] is listed as “Non-toxic”.

Regarding `COc1cc2c(cc1OC)CN(CCc1ccc(/N=N/c3ccccc3NC(=O)c3ccccc3[N+](=O)[O-])cc1)CC2`, in the series on K562/A02 [3], the Activity result was “Non-toxic”.

Consider `COc1cccc(C(=O)Nc2ccccc2/N=N/c2ccc(CCN3CCc4cc(OC)c(OC)cc4C3)cc2)c1`, for which the Activity entry with K562/A02 [3] was “Non-toxic”.

As for `COc1cc2c(cc1OC)CN(CCc1ccc(/N=N/c3ccccc3NC(=O)c3ccccc3OC)cc1)CC2`, the Activity entry in series [4] was “Active”; in the series on K562/A02 [5], “Active; Little Effect Of Compound Observed”; with K562/A02 [6] it was “Active; Little Effect Of Compound Observed”; with K562/A02 [3] it was “Non-toxic”. Moreover, the “inhibition (INH)” value in series [7] is “Dose-dependent-effect”. In addition, the EC50 in the series with K562/A02 [1] was 120 nM.

Regarding `COc1cc2c(cc1OC)CN(CCc1ccc(NC(=O)c3ccccc3/N=N/c3ccc(C)cc3)cc1)CC2`, in the series on K562/A02 [3], the Activity entry is recorded as “Non-toxic”.

In the case of `COc1cc2c(cc1OC)CN(CCc1ccc(/N=N/c3ccccc3NC(=O)c3ccccc3Cl)cc1)CC2`, the Activity entry in the series on K562/A02 [3] is recorded as “Non-toxic”.

Take `COc1cc2c(cc1OC)CN(CCc1ccc(/N=N/c3ccccc3NC(=O)c3cccc(Cl)c3)cc1)CC2`: in the series with K562/A02 [3], the Activity result is on record as “Non-toxic”.

As to `COc1cc2c(cc1OC)CN(CCc1ccc(/N=N/c3ccccc3NC(=O)c3ccc(Cl)c(Cl)c3)cc1)CC2`, in the series with K562/A02 [3], the Activity result is reported as “Non-toxic”.

For the compound `COc1cc2c(cc1OC)CN(CCc1ccc(/N=N/c3ccccc3NC(=O)c3ccc(C(C)(C)C)cc3)cc1)CC2`, the Activity entry with K562/A02 [3] is given as “Non-toxic”.

Turning to `COc1ccc(C(=O)Nc2ccccc2/N=N/c2ccc(CCN3CCc4cc(OC)c(OC)cc4C3)cc2)cc1OC`, the Activity result in the series on K562/A02 [3] is “Non-toxic”.

With `COc1cc2c(cc1OC)CN(CCc1ccc(NC(=O)c3ccccc3/N=N/c3cccc(Cl)c3)cc1)CC2`, in the series on K562/A02 [3], the Activity entry is on record as “Non-toxic”.

In the case of `COc1cc2c(cc1OC)CN(CCc1ccc(/N=N/c3ccccc3NC(=O)c3ccccc3)cc1)CC2`, the Activity result in the series on K562/A02 [3] is on record as “Non-toxic”.

Consider `COc1cc2c(cc1OC)CN(CCc1ccc(/N=N/c3ccccc3NC(=O)c3ccc(Cl)cc3)cc1)CC2`, for which, in the series with K562/A02 [3], the Activity result is on record as “Non-toxic”.

Take `COc1ccccc1/N=N/c1ccccc1C(=O)Nc1ccc(CCN2CCc3cc(OC)c(OC)cc3C2)cc1`: the Activity result in the series with K562/A02 [3] is given as “Non-toxic”.

For `COc1cc2c(cc1OC)CN(CCc1ccc(NC(=O)c3ccccc3/N=N/c3ccc(Cl)cc3)cc1)CC2`, the Activity result with K562/A02 [3] is given as “Non-toxic”.

On to `COc1cc2c(cc1OC)CN(CCc1ccc(/N=N/c3ccccc3NC(=O)c3ccc([N+](=O)[O-])cc3)cc1)CC2`, for which, in the series with K562/A02 [3], the Activity entry is recorded as “Non-toxic”.

For the compound `COc1cc2c(cc1OC)CN(CCc1ccc(/N=N/c3ccccc3NC(=O)c3ccc(C)c(C)c3)cc1)CC2`, the Activity result in the series on K562/A02 [3] is “Non-toxic”.

Consider `COc1cc2c(cc1OC)CN(CCc1ccc(/N=N/c3ccccc3NC(=O)c3ccc(F)c(F)c3)cc1)CC2`, for which the Activity entry in the series on K562/A02 [3] is given as “Non-toxic”.

`COc1cc2c(cc1OC)CN(CCc1ccc(/N=N/c3ccccc3NC(=O)c3cc(OC)c(OC)c(OC)c3)cc1)CC2`: the Activity result with K562/A02 [3] was “Non-toxic”.

On to `COc1cc2c(cc1OC)CN(CCc1ccc(/N=N/c3ccccc3NC(=O)c3cccc([N+](=O)[O-])c3)cc1)CC2`, for which the Activity entry with K562/A02 [3] is “Non-toxic”.
